Test results published in PubChem BioAssay (NCI).
Several values for one entry are separate records, joined by “and”; a condition that tells them apart may be missing. Equal values may be shown once.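 Method: 48-hour compound exposure of cells in 96-well plates, five concentrations, linear interpolation of endpoints. Here, GI50 denotes the concentration required for 50% inhibition of growth. Definition used: TGI = concentration required for complete inhibition of growth.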

Assays:
Assay in all cases: inhibition of tumour cell growth, NCI panel, 48 h
[1] = tested on: MALME-3M melanoma
[2] = tested on: MOLT-4 leukemia
[3] = tested on: U251 CNS
[4] = tested on: UACC-62 melanoma
[5] = tested on: OVCAR-8 ovarian
[6] = tested on: COLO 205 colon
[7] = tested on: NCI-H23 lung
[8] = tested on: K-562 leukemia
[9] = tested on: HCT-116 colon
[10] = tested on: DU-145 prostate

Structure (SMILES)	GI50 [1]	TGI [1]	GI50 [2]	TGI [2]	GI50 [3]	TGI [3]	GI50 [4]	TGI [4]	GI50 [5]	TGI [5]	GI50 [6]	TGI [6]	GI50 [7]	TGI [7]	GI50 [8]	TGI [8] [µM]	GI50 [9]	TGI [9]	GI50 [10]	TGI [10]
C#CCOC(=O)/C=C/C(=O)Oc1ccc2c(C)cc(=O)oc2c1	> 100 µM	> 100 µM	> 100 µM	> 100 µM	> 100 µM	> 100 µM	> 100 µM	> 100 µM	> 100 µM	> 100 µM	> 100 µM	> 100 µM	> 100 µM	> 100 µM	> 100 µM	> 100	> 100 µM	> 100 µM	> 100 µM	> 100 µM
COc1cc2c(cc1O)c(=O)n(CCN(C)C)c1c3cc4c(cc3ncc21)OCO4	0.0291 µM	0.192 µM	< 0.01 µM	0.0271 µM	< 0.01 µM	0.0426 µM	–	–	< 0.0116 µM	2.52 µM	1.52 µM	15.2 µM	< 0.01 µM	0.151 µM	0.019 µM	> 100	0.0117 µM	1.25 µM	< 0.01 µM	1.94 µM
CC(C)=Cc1cccc2[nH]c(O)c(N=Nc3ccc(S(N)(=O)=O)cc3)c12	> 25 µM	> 25 µM	1.74 µM	> 25 µM	4.24 µM	> 25 µM	> 25 µM	> 25 µM	5 µM	> 25 µM	> 9.93 µM	> 25 µM	7.25 µM	> 25 µM	3.69 µM	> 25	1.74 µM	> 14.3 µM	5.09 µM	> 25 µM
COc1ccc(-c2cc(-c3ccc(OC)cc3)nc(NCCCNc3ccnc4cc(Cl)ccc34)n2)cc1	1.76 µM	3.26 µM	1.84 µM	6.09 µM	1.6 µM	3 µM	2.76 µM	7.26 µM	1.81 µM	3.57 µM	1.72 µM	3.58 µM	1.8 µM	3.72 µM	1.79 µM	4.6	1.45 µM	2.76 µM	1.88 µM	3.38 µM
CC[C@H]1CCC/C=C/[C@@H]2C[C@H](O)C[C@H]2[C@H](O)/C=C/C(=O)O1	0.0381 µM	–	0.0354 µM	> 100 µM	0.0443 µM	> 100 µM	0.0384 µM	> 37.7 µM	0.0432 µM	> 100 µM	0.0213 µM	0.0395 µM	0.0414 µM	5.23 µM	0.125 µM	> 100	0.0328 µM	0.119 µM	0.179 µM	> 100 µM
CCN1C(=O)N(CC)C2C1NN=c1s/c(=C\c3ccc(C(F)(F)F)cc3)c(=O)n12 (stereo not drawn)	1.3 µM	> 47.2 µM	0.417 µM	16.3 µM	0.443 µM	> 41.6 µM	0.577 µM	> 44.7 µM	0.467 µM	28.2 µM	0.256 µM	0.888 µM	0.585 µM	> 64.4 µM	0.294 µM	> 39.8	0.343 µM	> 32.8 µM	0.41 µM	> 32.1 µM
FC(F)(F)c1nc(SCc2ccc(Cl)cc2)n[nH]1	–	> 100 µM	–	> 100 µM	–	> 100 µM	–	> 100 µM	–	> 100 µM	–	> 100 µM	–	> 100 µM	–	> 100	–	> 100 µM	–	> 100 µM
NNc1nc2ccccc2o1	–	> 100 µM	–	> 100 µM	–	> 100 µM	–	> 100 µM	–	> 100 µM	–	> 100 µM	–	> 100 µM	–	> 100	–	> 100 µM	–	> 100 µM
CCc1[nH]nc(C(N)=O)c1N=NN(C)C	–	> 100 µM	–	41.6 µM	–	> 100 µM	–	> 100 µM	–	> 100 µM	–	> 100 µM	–	> 100 µM	–	66.7	–	> 100 µM	–	> 100 µM
CCCCC(OC(=O)c1ccc(N)cc1)C(=O)Nc1nc(CC(=O)OCC)cs1 (stereo not drawn)	30.1 µM	> 100 µM	35.8 µM	> 100 µM	44.6 µM	> 100 µM	51.6 µM	> 100 µM	40.4 µM	> 100 µM	31.6 µM	> 100 µM	–	–	32.8 µM	> 100	37.3 µM	> 100 µM	36 µM	> 100 µM
O=c1cc(-c2ccccc2)oc2c1ccc1ccccc12	29.1 µM	72.1 µM	23.5 µM	51.5 µM	17.1 µM	> 100 µM	12.3 µM	> 100 µM	26 µM	> 100 µM	24.2 µM	> 100 µM	32.6 µM	> 100 µM	49.5 µM	> 100	20.3 µM	> 100 µM	30.6 µM	> 100 µM
Fc1ccc(-c2ncn(CCCN3CCOCC3)c2-c2ccncc2)cc1	> 25 µM	> 25 µM	> 25 µM	> 25 µM	> 25 µM	> 25 µM	> 25 µM	> 25 µM	> 25 µM	> 25 µM	> 25 µM	> 25 µM	> 25 µM	> 25 µM	> 25 µM	> 25	> 25 µM	> 25 µM	> 25 µM	> 25 µM
C#Cc1cccc(NC(=O)c2cccc(NC(=O)CCl)c2)c1	15.7 µM	41.5 µM	6.71 µM	61.2 µM	12.1 µM	28.4 µM	26.9 µM	> 82.5 µM	17.5 µM	> 82.5 µM	22 µM	> 82.5 µM	13.4 µM	29.9 µM	7.74 µM	> 82.5	7.98 µM	44.6 µM	29.2 µM	> 82.5 µM
Cc1ccc2[nH]c(O)c(N=Nc3ccccc3[N+](=O)[O-])c2c1	–	7.9 µM	–	> 100 µM	–	18.6 µM	–	> 100 µM	–	> 33.9 µM	–	> 100 µM	–	77.1 µM	–	> 100	–	12.2 µM	–	> 100 µM
O=C(O)CN1C(=O)CN=C(c2ccccn2)c2cc(Cl)ccc21	–	> 100 µM	–	21.7 µM	–	> 100 µM	–	> 100 µM	–	> 100 µM	–	> 100 µM	–	–	–	> 100	–	> 100 µM	–	> 100 µM
O=C(Nc1ccccc1Cl)c1ccc(NC2=C(Cl)C(=O)N(C3CCCCC3)C2=O)cc1	20.5 µM	51.2 µM	5.56 µM	20.4 µM	3 µM	19.4 µM	6.78 µM	26.5 µM	2.99 µM	18.5 µM	18.7 µM	38.3 µM	4.92 µM	21.2 µM	2.88 µM	17.9	5.51 µM	36.1 µM	6.78 µM	23.9 µM
O=C(Nc1n[nH]c2nc(-c3ccc(O)cc3)c(Br)cc12)C1CC1	4.62 µM	12.5 µM	5.13 µM	> 25 µM	4.39 µM	> 20.2 µM	4.26 µM	11.9 µM	4.71 µM	> 22.1 µM	3.18 µM	8.76 µM	4.78 µM	16.8 µM	2.86 µM	> 25	1.9 µM	> 25 µM	3.8 µM	20.4 µM
O=C(Nc1cn[nH]c1-c1nc2ccc(CN3CCOCC3)cc2[nH]1)NC1CC1	3.05 µM and > 10 µM	8.32 µM and > 10 µM	1.87 µM and 2.52 µM	5.4 µM and > 10 µM	0.274 µM and 1.3 µM	11.2 µM and > 10 µM	1.37 µM and 3.81 µM	3.5 µM and > 10 µM	1.74 µM and 5.19 µM	9.63 µM and > 10 µM	0.0376 µM and 0.0752 µM	1.75 µM and 3.81 µM	1.45 µM and 7.06 µM	5.16 µM and > 10 µM	0.543 µM and 1.59 µM	> 100	0.208 µM and 0.473 µM	10.8 µM and > 10 µM	2.6 µM and > 10 µM	14.7 µM and > 10 µM
O=C1/C(=C/c2ccc(F)cc2)CN(C(=O)C(Cl)Cl)C/C1=C\c1ccc(F)cc1	0.212 µM	0.528 µM	0.309 µM	> 100 µM	0.106 µM	0.335 µM	0.237 µM	0.641 µM	0.295 µM	1.64 µM	0.353 µM	1.42 µM	0.259 µM	0.774 µM	0.0533 µM	> 100	0.0673 µM	0.215 µM	0.671 µM	1.74 µM
CC1OC(CC(=O)O)Cc2c1c(O)c1c(O)cc(-c3cc(=O)c4c(=O)c5c(c(=O)c=4c3=O)CC(CC(=O)O)OC5C)c(O)c1c2O (stereo not drawn)	14.2 µM	29.2 µM and 38.5 µM	–	21.7 µM	26.1 µM	> 74 µM and 61 µM	48.9 µM	17.7 µM	–	75.9 µM	29.9 µM	18.1 µM and 92.9 µM	32.7 µM	33.9 µM	61.1 µM	> 83.6	30.4 µM	27.2 µM	26.2 µM	96.2 µM
CCOC(=O)c1c(-c2ccc(OC)c(O)c2)c(C#N)c(=S)n(C2OC(COC(C)=O)C(OC(C)=O)C(OC(C)=O)C2OC(C)=O)c1-c1ccccc1 (stereo not drawn)	–	57 µM	38.3 µM and > 100 µM	> 100 µM	–	> 100 µM	17.1 µM and > 100 µM	34.1 µM and > 100 µM	–	> 100 µM	27.9 µM and > 100 µM	> 100 µM	22.2 µM and > 100 µM	60.3 µM and > 100 µM	43.1 µM and > 100 µM	> 100	35.7 µM and > 100 µM	> 100 µM	27.3 µM and > 100 µM	76.3 µM and > 100 µM
CCOC(=O)Nc1ccc2c(c1)C(=O)N(CC)c1ccccc1O2	31.8 µM	> 100 µM	0.125 µM	> 100 µM	0.106 µM	> 100 µM	0.101 µM	> 100 µM	0.235 µM	> 100 µM	0.0819 µM	0.617 µM	0.542 µM	> 100 µM	0.0484 µM	> 100	0.0829 µM	> 100 µM	0.127 µM	–
O=c1oc2ccc(Cl)cc2c(=O)n1-c1ccc(F)cc1F	1.11 µM	5.38 µM	2.33 µM	5.59 µM	1.87 µM	36.7 µM	0.608 µM	3.84 µM	2.66 µM	> 100 µM	7.92 µM	23.9 µM	1.87 µM	7.24 µM	2.03 µM	> 100	2.53 µM	10.4 µM	3.75 µM	46.6 µM
COc1ccc(CNCCCN2C(=O)c3ccc4c5c(ccc(c35)C2=O)C(=O)N(CCCNCc2ccc(OC)c(OC)c2OC)C4=O)c(OC)c1OC	0.0765 µM	0.151 µM	0.121 µM	0.291 µM	0.0879 µM	0.174 µM	0.093 µM	0.182 µM	0.0914 µM	0.242 µM	0.0524 µM	0.12 µM	0.0936 µM	0.201 µM	0.168 µM	0.515	0.0773 µM	0.169 µM	0.093 µM	0.185 µM
C/C(CC(C)(C)N1CC1)=N\NC(=O)Nc1cccc2ccccc12	4.08 µM	18.8 µM	2.59 µM	6.29 µM	3.52 µM	14.4 µM	4.06 µM	15.8 µM	2.64 µM	13.4 µM	2.39 µM	7.19 µM	3.78 µM	21.3 µM	3.56 µM	24.5	3.32 µM	11.5 µM	3.07 µM	9.85 µM
CC1(C)N=c2cc3c(cc2N1c1ccc(Cl)cc1)=Nc1ccccc1N3c1ccc(Cl)cc1	4.79 µM	> 100 µM	1.53 µM	4.04 µM	8.03 µM	> 100 µM	7.18 µM	> 100 µM	4.01 µM	51.9 µM	4.66 µM	21.8 µM	3.16 µM	27.9 µM	1.68 µM	4.95	3.68 µM	> 100 µM	7.45 µM	> 100 µM
COC(=O)C1=C(C(=O)ON)[C@@H]2C=C[C@@]1([C@@H](Cc1ccccc1)Nc1ccccc1)O2	1.69 µM	3.2 µM	2.86 µM	7.71 µM	14.3 µM	27.6 µM	6.37 µM	19.3 µM	14.4 µM	27.9 µM	1.77 µM	3.57 µM	14.1 µM	28.9 µM	2.46 µM	8.72	1.67 µM	3.24 µM	1.84 µM	3.67 µM
